Source: patent US11529362B2, “Physiologically balanced injectable formulations of fosnetupitant” (HELSINN HEALTHCARE SA, priority 2016, dated 2022)
Like-named read-outs stand apart in the source and are kept apart here. One block for each molecule: values may come before it.

What was measured:
[1] = presence of EDTA, in proportion to its concentration in solution
[2] = Akynzeo prescribing information, cited from earlier work
[3] = p-Netu solubility studies; format: physicochemical; settings: in water at acidic pH values less than 7.0
Excerpt: A study was undertaken to determine the maximum allowable concentration of netupitant in aqueous solutions of p-Netu, above which unacceptable precipitation is observed.

Compound: O=C([O-])CN(CCN(CC(=O)[O-])CC(=O)O)CC(=O)O.[Na+].[Na+] [EDTA, Disodium edetate]
conversion of p-Netu to 14-Netu [1]: reduced

Compound: Cc1ccccc1-c1cc(N2CCN(C)CC2)ncc1N(C)C(=O)C(C)(C)c1cc(C(F)(F)F)cc(C(F)(F)F)c1 [netupitant, 2-(3,5-bis(trifluoromethyl)phenyl)-N,2-dimethyl-N-(6-(4-methylpiperazin-1-yl)-4-(o-tolyl)pyridine-3-yl)propanamide]
systemic exposure ([2]; dose increase from 10 mg to 300 mg): greater than dose-proportional increase | systemic exposure ([2]; dose increase from 300 mg to 450 mg): dose-proportional increase

p-Netu solubility [3]: drops significantly
Compound: Cc1ccccc1-c1cc(N2CC[N+](C)(COP(=O)([O-])O)CC2)ncc1N(C)C(=O)C(C)(C)c1cc(C(F)(F)F)cc(C(F)(F)F)c1 [p-Netu, 4-(5-(2-(3,5-bis(trifluoromethyl)phenyl)-N,2-dimethylpropanamido)-4-(o-tolyl)pyridin-2-yl)-1-methyl-1-((phosphonooxy)methyl) piperazin-1-ium]
